A short description of the data set: solvent given as SMILES.

Turning to `COCCOCCOCCOCC(COCCOCCOCCOC)Oc1cc(/C=C/c2ccc(C=C(C#N)C#N)cc2)c(OC(COCCOCCOCCOC)COCCOCCOCCOC)cc1/C=C/c1ccc(C=C(C#N)C#N)cc1`, the emission maximum (in ClCCl) was 596 nm.

As for `CC(C)[Si](C#Cc1c2cc3ccccc3cc2c(C#C[Si](C(C)C)(C(C)C)C(C)C)c2nc3c(nc12)C1c2ccccc2C3c2ccccc21)(C(C)C)C(C)C`, where the note is “in CCCCCC”, the emission maximum is recorded as 548 nm.

On to `COc1cc(OC)c2cc(-c3ccc(-c4cc5c(OC)cc(OC)cc5oc4=O)cc3)c(=O)oc2c1`, for which, where the note is “in ClC(Cl)Cl”, the emission maximum amounted to 446 nm.

Regarding `COc1cc(OC)cc(C2=CC(c3ccccc3)=C(c3ccccc3)C2)c1`, the emission maximum (in ClCCl) is reported as 449 nm.

In the case of `CN(c1ccccc1)c1ccc(-c2ccc(-c3ccc(N(C)c4ccccc4)cc3)c3nc(-c4ccccc4)c(-c4ccccc4)nc23)cc1`, the emission maximum worked out at 638 nm (in C1CCOC1); 659 nm (in CC#N); 598 nm (in CCCCCC); 661 nm (in CN(C)C=O); 627 nm (in Cc1ccccc1); 640 nm (in ClC(Cl)Cl).

Take `CN(C)c1cccc2c1C(=O)c1ccccc1C2=O`: the emission maximum came to 566 nm (in C1CCCCC1); 566.5 nm (in CC1CCCCC1); 593 nm (in CC#N); 566 nm (in CCC(C)CC); 566.2 nm (in CCCCCC); 585 nm (in CCOC(C)=O).

Consider `C=C[Si](c1c2ccccc2cc2ccccc12)(c1c2ccccc2cc2ccccc12)c1c2ccccc2cc2ccccc12`, for which the emission maximum (in ClC(Cl)Cl) was determined as 437 nm.

For the molecule `CCC1=C(C)C2=C(C)c3c(I)c(I)cn3[B-](F)(F)[N+]2=C1C`, the emission maximum by setting is: (in C1CCCCC1) 538.5 nm; (in CC(C)=O) 533 nm; (in CCO) 534 nm; (in CCOC(C)=O) 533 nm; (in CO) 533.5 nm; (in OCC(F)(F)F) 530.5 nm.

Under “in ClCCl”, `Cc1cc(-c2ccc(N(c3ccccc3)c3ccccc3)cc2)c2nsnc2c1-c1ccc(C(C)(C)C)cc1` registered an emission maximum of 575 nm.

For the molecule `C(=C\c1nc(/C=C/c2ccc(-n3c4ccccc4c4ccccc43)cc2)nc(/C=C/c2ccc(-n3c4ccccc4c4ccccc43)cc2)n1)/c1ccc(-n2c3ccccc3c3ccccc32)cc1`, the emission maximum is 500 nm (in C1CCOC1), 574 nm (in CC#N), 453 nm (in Cc1ccccc1) and 526 nm (in ClCCl).

In turn, `N#Cc1cc2ccc([O-])cc2oc1=O` displayed an emission maximum (in O) of 450 nm.

Where the note is “in Cc1ccccc1”, `Fc1c(F)c(-n2c3ccccc3c3ccccc32)c(F)c(F)c1-c1nnc(-c2ccccc2)o1` yielded an emission maximum of 444 nm.

`COc1ccc(C2=C(c3ccc(OC)cc3)c3cccc4c5c(cc(c34)O2)=NC(C#N)C(C#N)N=5)cc1` (stereo unspecified) yielded an emission maximum (in ClCCl) of 632 nm.

The molecule `Cc1cc(-n2c3ccccc3c3cc4c(cc32)C2c3ccccc3C4c3ccccc32)ccc1-c1nc(-c2ccccc2)nc(-c2ccccc2)n1` showed an emission maximum (in Cc1ccccc1) of 429 nm and an emission maximum (in O=P(c1ccccc1)(c1ccccc1)c1ccccc1Oc1ccccc1P(=O)(c1ccccc1)c1ccccc1) of 444 nm.

Turning to `CC1(C)C(/C=C/C2=C(c3ccc(C(=O)O)cc3)C(=C/C=C3/N(CCCCS(=O)(=O)[O-])c4ccccc4C3(C)C)/CC2)=[N+](CCCCS(=O)(=O)[O-])c2ccccc21`, for the setting “in CO”, the emission maximum is 816 nm.

As for `c1ccc(-c2nc(-c3ccccc3)nc(-n3c4ccccc4c4cc(-n5c6ccccc6c6ccccc65)cc(-n5c6ccccc6c6ccccc65)c43)n2)cc1`, the emission maximum turned out to be 482.53 nm (in C1CCOC1) and 465.06 nm (in Cc1ccccc1).

With `CCCCN(CCCC)c1ccc(C#Cc2cc(C#Cc3ccc(C(F)(F)F)cc3)c(C#Cc3ccc(N(CCCC)CCCC)cc3)cc2C#Cc2ccc(C(F)(F)F)cc2)cc1`, the emission maximum (in ClCCl) came out at 546 nm and the emission maximum (in c1ccccc1) is reported as 506 nm.

Under “in ClC(Cl)Cl”, `Oc1cccc(C2=[N+]3C(=C(c4ccccc4)c4cccn4[B-]3(F)F)C=C2)c1` registered an emission maximum of 553 nm.

`Cc1ccc(C#Cc2ccc3nc4ccc(C#Cc5ccc(C)cc5)cn4c(=O)c3c2)cc1` yielded an emission maximum (in ClCCl) of 480 nm.

On to `Cc1ccc(S(=O)(=O)Nc2c(/C=C/c3ccccc3)sc(-c3ccc(N(C)C)s3)c2-c2cccnc2)cc1`, for which, where the note is “in CC#N”, the emission maximum stood at 610 nm.

Turning to `CCCCCCC(CCCCCC)N1C(=O)c2cccc3c(-c4ccc([Si](C)(C)C)cc4)ccc(c23)C1=O`, the emission maximum is, setting by setting: (in CCCCCC) 406.7 nm; (in CCCCCCCCCCCCCC) 407 nm; (in CCCCCCCCCCCO) 430.6 nm; (in CCCCO) 434.2 nm; (in CN(C)C=O) 432.7 nm; (in Cc1ccccc1) 416.7 nm. Further, the emission maximum (in ClC(Cl)Cl) is reported as 425.4 nm.

Take `Cc1cc2c(o1)c(Br)cc1c(C)cc(=O)oc12`: the emission maximum (in C1CCCCC1) is recorded as 408 nm; the emission maximum (in C1COCCO1) turned out to be 418 nm; the emission maximum (in CC#N) turned out to be 435 nm; the emission maximum (in CCO) came to 439 nm; the emission maximum (in OCC(F)(F)F) stood at 436 nm.

For the molecule `Oc1ccc2ccccc2c1C1Nc2cccc3cccc(c23)N1`, the emission maximum by setting is: (in CC#N) 540 nm; (in CO) 476 nm; (in CS(C)=O) 528 nm; (in Cc1ccccc1) 468 nm.

Take `CCN(CC)c1ccc(-c2nc(Oc3ccc(-c4nc5ccc(Cl)cc5o4)cc3)nc(Oc3ccc(-c4nc5ccc(Cl)cc5o4)cc3)n2)cc1`: under “in CN(C)C=O”, the emission maximum was determined as 424 nm.

For the setting “in C1CCCCC1”, `N#C/C(=C\c1ccccc1)c1nc2ccccc2s1` showed an emission maximum of 430 nm.

In the case of `COc1cc(/C=C/c2ccccc2)cc(OC)c1`, the emission maximum amounted to 364 nm (in C1CCCCC1); 390 nm (in CC#N); 382 nm (in CC(C)O); 372 nm (in CCCCOCCCC); 382 nm (in CCOC(C)=O); 374 nm (in CCOCC).

In the case of `N#CC(C#N)=Cc1ccc2nc(C#Cc3ccc(N(c4ccc(C#Cc5nc6ccc(C=C(C#N)C#N)cc6s5)cc4)c4ccc(C#Cc5nc6ccc(C=C(C#N)C#N)cc6s5)cc4)cc3)sc2c1`, for the setting “in Cc1ccccc1”, the emission maximum is 512 nm.

In the case of `FC(F)(F)c1ccc2oc3nc4oc5ccc(N(c6ccccc6)c6ccccc6)cc5c4cc3c2c1`, under “in ClC(Cl)Cl”, the emission maximum was determined as 487 nm.

In the case of `CCC1=C(C)C2=C(C)c3cc(I)c(I)n3[B-](F)(F)[N+]2=C1C`, the emission maximum by setting is: (in C1CCCCC1) 546 nm; (in CC(C)=O) 544.5 nm; (in CCO) 548 nm; (in CCOC(C)=O) 544.5 nm; (in CO) 546 nm; (in OCC(F)(F)F) 542.5 nm.

As for `O=C1c2ccccc2C2=Cc3cccc[n+]3[B-](F)(F)N12`, the emission maximum stood at 449 nm (in CCO), 459 nm (in Cc1ccccc1) and 454 nm (in ClCCl).

With `Cc1ccc(-n2c3ccc(-c4ccc(-c5nc6ccccc6n5-c5ccccc5)cc4)cc3c3cc(-c4ccc(-c5nc6ccccc6n5-c5ccccc5)cc4)ccc32)cc1`, the emission maximum (in ClC(Cl)Cl) is reported as 410 nm.

In the case of `CCOc1ccc2c(-c3nc(-c4cccc(C)c4)no3)cc(=O)oc2c1`, the emission maximum (in CCO) was determined as 465 nm and the emission maximum (in ClC(Cl)Cl) stood at 456 nm.

Turning to `F[B-]1(F)n2c(cc3oc(-c4ccccc4)cc32)C=C2C=c3oc(-c4ccccc4)cc3=[N+]21`, the emission maximum (in ClC(Cl)Cl) came out at 661 nm.

As to `c1ccccc1`, for the setting “in C1CCCCC1”, the emission maximum was 287.36 nm.

Take `Cc1ccc(-c2cc3ccccc3oc2=O)cc1`: the emission maximum by setting is: (in C1CCOC1) 410 nm; (in CCCCCC) 425 nm; (in CCO) 408 nm; (in CS(C)=O) 409 nm.

For `COc1cc(OC)c2c(c1)c1c(c3ccc(C(C)(C)C)cc32)=[N+]2C(=Nc3c(-c4cc(OC)c(OC)c(OC)c4)c4c5cc(OC)cc(OC)c5c5cc(C(C)(C)C)ccc5c4n3[B-]2(F)F)C=1c1cc(OC)c(OC)c(OC)c1`, under “in Cc1ccccc1”, the emission maximum is 809 nm.

Regarding `CN(C)C(=O)c1ccc(-c2nc3ccc(N(C)C)cc3s2)cc1`, the emission maximum is, setting by setting: (in C1CCCCC1) 415 nm; (in CC#N) 521 nm; (in CC(C)O) 518 nm; (in CO) 543 nm; (in CS(C)=O) 534 nm; (in ClC(Cl)Cl) 472 nm. Under “in c1ccccc1”, this molecule registered an emission maximum of 457 nm.

For the setting “in CC#N”, `CC1=C(c2ccccc2)C2=Cc3c(-c4ccccc4)c(C)c(C)n3[B-](F)(F)[N+]2=C1C` returned an emission maximum of 549 nm.

Take `c1ccc(-n2c3ccccc3c3ccccc32)cc1`: the emission maximum (in CCO) is on record as 344 nm.

Where the note is “in ClCCl”, `CC(C)(C)c1ccc(N(c2ccc(C(C)(C)C)cc2)c2cc(N(c3ccc(C(C)(C)C)cc3)c3ccc(C(C)(C)C)cc3)c3ccc4cc(C(C)(C)C)cc5ccc2c3c54)cc1` had an emission maximum of 491 nm.

`COC(=O)COc1ccc(/C=C/C2=[N+]3C(=C(c4ccc(N5CCCCC5)cc4)c4c(C)cc(C)n4[B-]3(F)F)C(C)=C2)cc1` gave an emission maximum (in CO) of 581 nm.

As to `C(=C\c1cnccn1)/c1ccc2nccnc2c1`, the emission maximum came to 403 nm (in CCCCCC); 435 nm (in CCO); 443 nm (in CO); 417 nm (in ClCCl); 410 nm (in c1ccccc1).

Molecule `F[B-]1(F)OC(c2cccc(Br)c2)=Cc2ccc3ccccc3[n+]21` yielded an emission maximum (in ClC(Cl)Cl) of 435 nm.

In turn, `CC[NH+](CC)c1ccc(-c2nc3c(nc2-c2ccc(B(c4c(C)cc(C)cc4C)c4c(C)cc(C)cc4C)cc2)c2ccccc2n3C)cc1` gave an emission maximum (in C1CCOC1) of 428.33 nm.

Turning to `COc1ccc(/C=C/c2nc(/C=C/c3ccc(N(c4ccccc4)c4ccccc4)cc3)cc(/C=C/c3ccc(N(c4ccccc4)c4ccccc4)cc3)n2)cc1`, the emission maximum is 515 nm (in C1CCOC1); 583 nm (in CC#N); 555 nm (in CC(C)=O); 461 nm (in CCCCCCC); 584 nm (in CS(C)=O); 480 nm (in Cc1ccccc1). Moreover, the emission maximum (in ClCCl) is recorded as 543 nm.

Values taken from the Deep4Chem optical property database.
